Measured values as given in patent EP4592291A1, “USE OF PEMETREXED NEAR-INFRARED FLUORESCENT MOLECULE TARGETING ALPHA-TYPE FOLATE RECEPTOR AS FLUORESCENT TRACER” (Nanjing Nuoyuan Medical Devices Co., Ltd, priority 2022, dated 2024).

What was measured:
[1] = tested on: cell line A549 with low folate receptor α expression; experiment: Confocal cell imaging of tracer uptake, cell line with low folate receptor α expression; assay type: cell-based; conditions: folate receptor α negative A549 cell, 100 nM tracer, incubated 1 h
Method: (§1) 4. In order to verify the effect of the present disclosure, the following verification experiment was conducted: • (1) Use of a pemetrexed near-infrared fluorescent molecule in the aspect of differentiating a tumor with high folate receptor α expression from inflammation, that is, specific recognition of the pemetrexed near-infrared fluorescent molecule on a cell line with high folate receptor α expression: a cell line H1299 with high folate receptor α expression, a cell line A549 with low folate receptor α expression and a cell line RAW264.7 with high folate receptor β expression were selected. The cells were cultured in a Roswell Park Memorial Institute (RPPMI) culture medium containing 10% fetal bovine serum (FBS) and 1% […] in moist air containing 5% CO2 and 95% air at 37°C. The cells were incubated for 1 h in a confocal vessel by utilizing a 100 nM pemetrexed near-infrared fluorescent tracer. The cells after incubation were washed with PBS, stained with DPAI, fixed with paraformaldehyde and then photographed.

[2] = tested on: inflammatory tissue slice with high folate receptor β expression; experiment: Fluorescence of inflammatory tissue slices, H1299 tumor plus peritonitis mouse model; assay type: in vivo; conditions: H1299 tumor-bearing mouse with peritonitis, FIG. 7
From the text: (§2) The establishment of the inflammation model was verified by utilizing immunohistochemistry slices. […] By utilizing different specificities to different folate receptor subtypes, the tumors are effectively differentiated from the inflammatory tissues.

[3] = tested on: cell line RAW264.7 with high folate receptor β expression; experiment: Confocal cell imaging of tracer uptake, cell line with high folate receptor β expression; assay type: cell-based; conditions: RAW264.7, 100 nM tracer, incubated 1 h
Method: as §1

[4] = tested on: non-small cell lung cancer slice with high folate receptor α expression; experiment: Fluorescence of tumor slices, H1299 tumor plus peritonitis mouse model; assay type: in vivo; conditions: H1299 tumor-bearing mouse with peritonitis, FIG. 6
From the text: as §2

[5] = tested on: H1299 tumor-bearing mice with high folate receptor α expression; experiment: In vivo near-infrared imaging of tumor-bearing mice, high folate receptor α expression; conditions: tail vein injection, dose of 10 nm, after 2 h
Method: (§3) (2) The pemetrexed near-infrared fluorescent molecule was used for specifically recognizing non-small lung cancer tissues with high folate receptor α expression: the pemetrexed near-infrared fluorescent tracer was administrated to H1299 and A549 tumor-bearing mice via tail vein injection at a dose of 10 nm. After 2 h, imaging effects were observed through an animal imaging instrument and tissue biological distribution of mice was analyzed.

[6] = tested on: cell line H1299 with high folate receptor α expression; experiment: Confocal cell imaging of tracer uptake, cell line with high folate receptor α expression; assay type: cell-based; conditions: 100 nM tracer, incubated 1 h
Method: as §1

[7] = tested on: A549 tumor-bearing mice with low folate receptor α expression; experiment: In vivo near-infrared imaging of tumor-bearing mice, low folate receptor α expression; conditions: tail vein injection, dose of 10 nm, after 2 h
Method: as §3

SMILES: CC1(C)C(=CC=C2CCCC(C=CC3=[N+](CCCCS(=O)(=O)[O-])c4ccc(S(=O)(=O)O)cc4C3(C)C)=C2Oc2ccc(C[C@H](NC(=O)c3ccc(CCc4c[nH]c5[nH]c(N)nc(=O)c45)cc3)C(=O)O)cc2)N(CCCCS(=O)(=O)O)c2ccc(S(=O)(=O)O)cc21
- tracer fluorescence in the cell (internalization) [1]: not observed
- fluorescence of tissue slice [2]: almost has no fluorescence
- fluorescence in the cell [3]: not detected
- fluorescence intensity of tissue slice [4]: relatively high intensity
- specific recognition of tumor (imaging effect) [5]: capable of specifically recognizing
- tumor background-to-signal ratio [5]: good
- tracer fluorescence in the cell (internalization) [6]: seen in the entire cytoplasm
- targeting effect (imaging) [7]: not detected
